Data published in ChEMBL document CHEMBL4483862, “Open-source discovery of chemical leads for next-generation chemoprotective antimalarials” (2018).

System: Plasmodium berghei
Experiment: Luciferase/luciferin-expressing antifolate-resistant parasites were used to infect a culture of HepG2 cells that were pre-incubated with compounds. Infected hepatocytes emit light due to the luciferase reaction. Assay results are presented as the percent inhibition of light emission compared to control. […]
Format: functional
Details: sporozoite; for IC90: read-out: LUCIFERASE INFECTION ASSAY - IC90
[1] = read-out: LUCIFERASE INFECTION ASSAY - IC50

Structure (SMILES)	IC50 [1] [µM]	IC90 [µM]	other results
Cc1ccc(-c2cc(C(=O)NNC(=O)CC34CC5CC(CC(C5)C3)C4)c3ccccc3n2)cc1	> 10	> 10	–
CC(OC(=O)c1ccc(=O)n(Cc2ccccc2)n1)C(=O)N1CCCc2ccccc21 (configuration not stated)	> 10	> 10	–
COc1ccccc1C(=O)OC(c1ccc(NC(=O)c2ccc(OC(F)F)cc2)cc1)(C(F)(F)F)C(F)(F)F	3.51	4.33	–
Oc1cccc(-c2ccnc3n[nH]c(-c4ccc5c(c4)OCO5)c23)c1	–	6.14	IC50 (HEPG2TOX_HILL_SLOPE 9.48, HEPG2TOX_R_SQUARED 0.645, PBLUC_HILL_SLOPE 1.2, PBLUC_R_SQUARED 0.596, read-out: LUCIFERASE INFECTION ASSAY - IC50): 0.984 µM
Cc1cc(NC(=O)C(C)n2nc(-c3cccs3)c3ccccc3c2=O)no1 (configuration not stated)	–	> 10	IC50 (HEPG2TOX_HILL_SLOPE 9.69, HEPG2TOX_R_SQUARED 0.542, read-out: LUCIFERASE INFECTION ASSAY - IC50): > 10 µM
Cc1ccc(CNCc2nc(NCc3ccc(C)cc3)c3c(C)c(C)sc3n2)cc1	–	4.22	IC50 (FFLUC_HILL_SLOPE 14.5, FFLUC_R_SQUARED 0.473, HEPG2TOX_HILL_SLOPE 357, HEPG2TOX_R_SQUARED 0.506, PBLUC_HILL_SLOPE 12.5, PBLUC_R_SQUARED 0.0149, read-out: LUCIFERASE INFECTION ASSAY - IC50): 3.54 µM
COc1ccc(CNc2nc(C)nc3scc(-c4ccccc4)c23)cc1	–	6.87	IC50 (FFLUC_HILL_SLOPE 0.195, FFLUC_R_SQUARED 0.119, HEPG2TOX_HILL_SLOPE 2.5, HEPG2TOX_R_SQUARED 0.976, PBLUC_HILL_SLOPE 4.55, PBLUC_R_SQUARED 0.142, read-out: LUCIFERASE INFECTION ASSAY - IC50): 4.24 µM
Cn1ncc(C(C#N)c2nc3ccccc3s2)c(Cl)c1=O (configuration not stated)	> 10	> 10	–
CN(C)CCCOc1ccc(-c2nnc3ccc(-c4cccc(Oc5ccccc5)c4)cn23)cc1	–	> 10	IC50 (PBLUC_HILL_SLOPE 15.3, PBLUC_R_SQUARED 0.363, read-out: LUCIFERASE INFECTION ASSAY - IC50): 9.36 µM
CCOC(=O)c1cc(C#N)c(Sc2nnc(SC)s2)nc1C(F)(F)F	–	> 8.12	IC50 (HEPG2TOX_HILL_SLOPE 16.4, HEPG2TOX_R_SQUARED 0.12, PBLUC_HILL_SLOPE 2.78, PBLUC_R_SQUARED 0.452, read-out: LUCIFERASE INFECTION ASSAY - IC50): 4.34 µM
O=S(=O)(c1cccs1)n1ccc(-c2ccc3c(c2)CCO3)n1	> 9.93	> 9.93	–
O=C(Nc1nc2ccccn2c1C(=O)NC1CCCCC1)c1ccccc1Cl	–	8.12	IC50 (FFLUC_HILL_SLOPE 10.6, FFLUC_R_SQUARED 0.389, HEPG2TOX_HILL_SLOPE 7.19, HEPG2TOX_R_SQUARED 0.725, PBLUC_HILL_SLOPE 14.8, PBLUC_R_SQUARED 0.156, read-out: LUCIFERASE INFECTION ASSAY - IC50): 7 µM
CC(NC(=O)c1cc(-c2ccc3c(c2)OCCO3)nc2c1cnn2C(C)C)c1nc2ccccc2[nH]1 (configuration not stated)	–	> 10	IC50 (PBLUC_HILL_SLOPE 1.49, PBLUC_R_SQUARED 0.0633, read-out: LUCIFERASE INFECTION ASSAY - IC50): > 10 µM
Cc1ccc(S(=O)(=O)n2c3ccc(Cl)cc3c3nc(C)sc32)cc1	–	> 8.76	IC50 (FFLUC_HILL_SLOPE 13.1, FFLUC_R_SQUARED 0.689, read-out: LUCIFERASE INFECTION ASSAY - IC50): > 8.76 µM
NC(=O)c1ccc(N2CCNCC2)nc1	> 10	> 10	–
Cc1cc(C)n2nc(SCC(=O)c3c(-c4ccccc4)[nH]c4ccccc34)nc2n1	–	5.12	IC50 (PBLUC_HILL_SLOPE 3.17, 7.12, PBLUC_R_SQUARED 0.979, 0.666, read-out: LUCIFERASE INFECTION ASSAY - IC50): 4.67 µM
Cc1ccc(N/N=C/c2c3ccccc3cc3ccccc23)cc1Cl	–	5.87	IC50 (HEPG2TOX_HILL_SLOPE 1.41, HEPG2TOX_R_SQUARED 0.742, PBLUC_HILL_SLOPE 1.25, PBLUC_R_SQUARED 0.657, read-out: LUCIFERASE INFECTION ASSAY - IC50): 1.01 µM
N#C/C(=C\c1ccc(C(F)(F)F)cc1)c1c[nH]c2ccccc12	–	> 10.6	IC50 (FFLUC_HILL_SLOPE 17.8, FFLUC_R_SQUARED 0.181, PBLUC_HILL_SLOPE 2.5, PBLUC_R_SQUARED 0.114, read-out: LUCIFERASE INFECTION ASSAY - IC50): > 10.6 µM
COc1ccc(-c2cnc3cnc(-c4ccsc4)cn23)cc1	–	4.82	IC50 (HEPG2TOX_HILL_SLOPE 3.46, HEPG2TOX_R_SQUARED 0.703, PBLUC_HILL_SLOPE 8.9, PBLUC_R_SQUARED 0.737, read-out: LUCIFERASE INFECTION ASSAY - IC50): 3.76 µM
CC(C(=O)Nc1cc(S(=O)(=O)N2CCCCC2)ccc1Cl)N1CCN(c2ccccn2)CC1 (configuration not stated)	> 10	> 10	–
Cc1cn2c(/C=c3\s/c(=C\C(=O)c4ccccc4C)n(C)c3=O)c(C)nc2s1	–	0.619	IC50 (HEPG2TOX_HILL_SLOPE 2.41, HEPG2TOX_R_SQUARED 0.966, PBLUC_HILL_SLOPE 72.2, PBLUC_R_SQUARED 0.61, read-out: LUCIFERASE INFECTION ASSAY - IC50): 0.6 µM

Structure (SMILES)	IC50 [1] [µM]	IC90 [µM]	other results
CCOC(=O)c1c(-c2ccccc2)csc1NC(=O)c1cc(-c2ccco2)nc2ccccc12	–	9.72	IC50 (FFLUC_HILL_SLOPE 28.5, FFLUC_R_SQUARED 0.474, PBLUC_HILL_SLOPE 2.84, PBLUC_R_SQUARED 0.759, read-out: LUCIFERASE INFECTION ASSAY - IC50): 4.48 µM
Cc1nc(C(N)=NOC(=O)c2c(-c3ccccc3Cl)noc2C)cs1	> 8.76	> 8.76	–
COc1ccc(-c2cnc3cnc(-c4ccc5c(c4)OCO5)cn23)cc1	1.78	4.64	–
Cc1ccc(Sc2ncnc3sccc23)cc1	> 12.8	> 12.8	–
COc1ccc(-c2ccc3ncc(-c4cccc(C(=O)NCCN(C)C)c4)n3n2)cc1OC	–	0.309	IC50 (HEPG2TOX_HILL_SLOPE 0.532, HEPG2TOX_R_SQUARED 0.94, PBLUC_HILL_SLOPE 3.74, PBLUC_R_SQUARED 0.793, read-out: LUCIFERASE INFECTION ASSAY - IC50): 0.172 µM
CCN(CC(=O)NC(C)(C)C)C(=O)c1cc(OC)c(Br)c(OC)c1	> 10	> 10	–
FC(F)(F)c1cccc(-c2nc3ccnc(Nc4ccccc4)c3[nH]2)c1	3.2	> 10	–
COc1cccc(CN2CCC2(C)C(=O)Nc2cccc(Oc3ccccc3)c2)c1F (configuration not stated)	–	> 7.85	IC50 (HEPG2TOX_HILL_SLOPE 2.25, HEPG2TOX_R_SQUARED 0.907, PBLUC_HILL_SLOPE 3.39, PBLUC_R_SQUARED 0.419, read-out: LUCIFERASE INFECTION ASSAY - IC50): 5.73 µM
Oc1cccc(-c2cnc3cnc(-c4ccc(Cl)cc4)cn23)c1	–	> 10.3	IC50 (HEPG2TOX_HILL_SLOPE 0.659, HEPG2TOX_R_SQUARED 0.949, PBLUC_HILL_SLOPE 0.784, PBLUC_R_SQUARED 0.857, read-out: LUCIFERASE INFECTION ASSAY - IC50): 1.55 µM
NNC(=O)COc1ccccc1CSc1ccc(Cl)cc1	> 10.2	> 10.2	–
O=C1CCCC2=Nc3ccc4ccccc4c3C(c3ccc(F)cc3F)C12 (configuration not stated)	–	> 10	IC50 (FFLUC_HILL_SLOPE 2.36, FFLUC_R_SQUARED 0.309, read-out: LUCIFERASE INFECTION ASSAY - IC50): > 10 µM
COc1cc(Nc2cncc(-c3ccc(N)cc3)n2)cc(OC)c1OC	–	1.84	IC50 (HEPG2TOX_HILL_SLOPE 1.6, HEPG2TOX_R_SQUARED 0.917, PBLUC_HILL_SLOPE 3.36, PBLUC_R_SQUARED 0.719, read-out: LUCIFERASE INFECTION ASSAY - IC50): 0.955 µM
CC(C)n1ncc2c(C(=O)Nc3nnc(C(F)(F)F)s3)cc(-c3ccc4c(c3)OCCO4)nc21	–	5.59	IC50 (FFLUC_HILL_SLOPE 2.46, FFLUC_R_SQUARED 0.0818, HEPG2TOX_HILL_SLOPE 10.3, HEPG2TOX_R_SQUARED 0.775, PBLUC_HILL_SLOPE 73.3, PBLUC_R_SQUARED 0.159, read-out: LUCIFERASE INFECTION ASSAY - IC50): 5.42 µM
CCN1C/C(=C/c2cc(Cl)c(OC(C)C)c(OC)c2)C(=O)/C(=C/c2cc(Cl)c(OC(C)C)c(OC)c2)C1	–	3.46	IC50 (HEPG2TOX_HILL_SLOPE 9.62, 4.07, HEPG2TOX_R_SQUARED 0.967, 0.574, PBLUC_HILL_SLOPE 16.5, 9.41, PBLUC_R_SQUARED 0.287, 0.470, read-out: LUCIFERASE INFECTION ASSAY - IC50): 2.85 µM
N#Cc1[nH]c2ccc(Cl)cc2c1-c1ccccc1	> 13.1	> 13.1	–
C=CCNC(=O)CN(C)S(=O)(=O)c1ccc2c(c1)OCCCO2	> 10	> 10	–
CC(C)c1ccccc1N(C(=O)Cc1ccc(-c2ccccc2)cc1)c1nc2ccccc2s1	–	> 10	IC50 (FFLUC_HILL_SLOPE 11.9, FFLUC_R_SQUARED 0.677, HEPG2TOX_HILL_SLOPE 16.8, HEPG2TOX_R_SQUARED 0.508, PBLUC_HILL_SLOPE 1.31, PBLUC_R_SQUARED 0.0526, read-out: LUCIFERASE INFECTION ASSAY - IC50): 6.43 µM
Cc1cc(-c2nc(=O)c3ccccc3[nH]2)c(C)n1-c1cccc(S(=O)(=O)N2CCOCC2)c1	–	> 10	IC50 (PBLUC_HILL_SLOPE 0.619, PBLUC_R_SQUARED 0.0201, read-out: LUCIFERASE INFECTION ASSAY - IC50): > 10 µM
CCc1ccc(-n2c(SC3CCCCC3NS(=O)(=O)c3ccccc3)nc3ccccc3c2=O)cc1 (configuration not stated)	–	4.14	IC50 (PBLUC_HILL_SLOPE 16.5, PBLUC_R_SQUARED 0.215, read-out: LUCIFERASE INFECTION ASSAY - IC50): 3.63 µM
O=C(Nc1nc2ccc(Oc3ccccc3)cc2s1)c1ccc(S(=O)(=O)C(F)F)cc1	–	> 10	IC50 (HEPG2TOX_HILL_SLOPE 10.3, HEPG2TOX_R_SQUARED 0.512, read-out: LUCIFERASE INFECTION ASSAY - IC50): > 10 µM
